Experimental data: patent US20240124442A1, “TRICYCLIC-AMIDO-BICYCLIC PRMT5 INHIBITORS” (AMGEN INC., priority 2021, published 2024)

Experiments:
[1] = system: HCT116 MTAP null cells; assay: HCT116 MTAP null cell line proliferation / cell viability (CellTiter-Glo, 6 days); format: cell-based; settings: 144 h; HCT116 MTAP null cells, 6 days treatment, CellTiter-Glo cell viability; read-out: HCT-116 MTAP null IC50
Method in brief: (§1)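 WT vs MTAP-null HCT116, 6 d drug, CTG readout. 1:3 × 8–9 pts (top 1/10 μM) or 1:2 × 22 pts (top 10/50 μM). IC50 by 4PL or Hill −1 fit.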

[2] = system: HCT116 WT cells; assay: HCT116 WT (parent) cell line proliferation / cell viability (CellTiter-Glo, 6 days); format: cell-based; settings: Homo sapiens, HCT-116, 144 h, 6 days treatment
Method in brief: as §1

| SMILES | IC50 [1] [nM] | IC50 [2] [nM] |
| --- | --- | --- |
| CN(C(=O)c1ccc2nc(N)c3cnn(C)c3c2c1)[C@@H]1COCc2nc(C(F)(F)F)ccc21 [Example 286, 4-amino-N,1-dimethyl-N-((5S)-2-(trifluoromethyl)-5,8-dihydro-6H-pyrano[3,4-b]pyridin-5-yl)-1H-pyrazolo[4,3-c]quinoline-8-carboxamide] | 8 | 619 |
| CN(C(=O)c1cc2c(cc1F)nc(N)c1cnn(C)c12)[C@@H]1COCc2cc(S(C)(=O)=O)ccc21 (single isomer, unassigned) [Example 600] | 10 | 226 |
| CN(C(=O)c1cc2c(cc1F)nc(N)c1c2cnn1C)[C@@H]1COCc2cc(C(F)(F)F)cnc21 (single isomer, unassigned) [Example 606] | 724 | 13500 |
| CN(C(=O)c1cc2c3c(c(N)nc2cn1)COC3)[C@H]1CCOc2cc(C(F)(F)F)ccc21 (single isomer, unassigned) [Example 586] | 3020 | 10000 |
| CN(C(=O)c1cc2c(cn1)nc(N)c1cnn(C)c12)[C@@H]1COc2cc(C(F)(F)F)ncc21 (single isomer, unassigned) [Example 568] | 97 | 5800 |
| CN(C(=O)c1cc2c(cc1C(F)(F)F)nc(N)c1cnn(C)c12)[C@@H]1COCc2nc(C(F)(F)F)ccc21 [Example 303, 4-amino-N,1-dimethyl-7-(trifluoromethyl)-N-((5S)-2-(trifluoromethyl)-5,8-dihydro-6H-pyrano[3,4-b]pyridin-5-yl)-1H-pyrazolo[4,3-c]quinoline-8-carboxamide] | 14 | 902 |
| CN(C(=O)c1ccc2nc(N)c3c(c2c1)COC3)[C@@H]1COc2cc(-c3cnn(C)c3)ccc21 [Example 202, 4-amino-N-methyl-N-((3S)-6-(1-methyl-1H-pyrazol-4-yl)-2,3-dihydro-1-benzofuran-3-yl)-1,3-dihydrofuro[3,4-c]-quinoline-8-carboxamide] | 83 | 11400 |
| [2H]C([2H])([2H])N(C(=O)c1cc2c3c(c(N)nc2cn1)COC3)[C@@H]1COc2cc(C(F)(F)F)ccc21 (single isomer, unassigned) [Example 337] | 41 | 2090 |
| CN(C(=O)c1ccc2nc(N)c3cnn(C)c3c2c1)[C@@H]1COc2cc(-c3ccnn3C)ccc21 [Example 630, 4-amino-N,1-dimethyl-N-((3S)-6-(1-methyl-1H-pyrazol-5-yl)-2,3-dihydro-1-benzofuran-3-yl)-1H-pyrazolo[4,3-c]quinoline-8-carboxamide] | 3 | 222 |
| CN(C(=O)c1ccc2nc(N)c3c(c2c1)COC3)[C@H]1CCOc2cc(C(F)(F)F)ccc21 (single isomer, unassigned) [Example 579] | 2370 | 4510 |
| CN(C(=O)c1ccc2nc(N)c3cnn(C)c3c2c1)[C@@H]1COc2cc(C(F)(F)F)ccc21 [Example 473, 4-amino-N,1-dimethyl-N-((3S)-6-(trifluoromethyl)-2,3-dihydro-1-benzofuran-3-yl)-1H-pyrazolo[4,3-c]quinoline-8-carboxamide] | 15 | 349 |
| CN(C(=O)c1cc2c(cc1F)nc(N)c1cnn(C)c12)C1CCOc2nc(C(F)(F)F)ccc21 [Example 291, 4-amino-7-fluoro-N,1-dimethyl-N-((4R)-7-(trifluoromethyl)-3,4-dihydro-2H-pyrano[2,3-b]-pyridin-4-yl)-1H-pyrazolo[4,3-c]quinoline-8-carboxamide and 4-amino-7-fluoro-N,1-dimethyl-N-((4S)-7-(trifluoromethyl)-3,4-dihydro-2H-pyrano[2,3-b]pyr-idin-4-yl)-1H-pyrazolo[4,3-c]-quinoline-8-carboxamide] | 169 | 10500 |
| CN(C(=O)c1cc2c(cc1F)nc(N)c1cnn(C)c12)[C@H]1COc2cc(C(F)(F)F)ccc21 (single isomer, unassigned) [Example 572] | 758 | 11400 |

Further molecules by falling IC50 [1], results first:

| IC50 [1] [nM] | IC50 [2] [nM] | SMILES |
| --- | --- | --- |
| 1200 | 8850 | CN(C(=O)c1cc2c3c(c(N)nc2cc1F)COC3)[C@H]1COc2cc(S(F)(F)(F)(F)F)ccc21 (single isomer, unassigned) [Example 358] |
| 305 | 5880 | CN(C(=O)c1cc2c(cc1F)nc(N)c1cnn(C)c12)[C@H]1COCc2cc(OC(F)(F)F)ccc21 (single isomer, unassigned) [Example 431] |
| 215 | 2060 | CN(C(=O)c1ccc2nc(N)c3cnn(C)c3c2c1)[C@@H]1COc2cc(C(F)(F)F)cc(Cl)c21 [Example 231, 4-amino-N-((3S)-4-chloro-6-(trifluoromethyl)-2,3-dihydro-1-benzofuran-3-yl)-N,1-dimethyl-1H-pyrazolo[4,3-c]-quinoline-8-carboxamide] |
| 206 | 5390 | CN(C(=O)c1cc2c3c(c(N)nc2cc1F)COC3)C1CCOc2cc(C(F)(F)F)ccc21 (racemic) [Example 272, 4-amino-7-fluoro-N-methyl-N-((4R)-7-(trifluoromethyl)-3,4-dihydro-2H-chromen-4-yl)-1,3-dihydrofuro[3,4-c]quinoline-8-carboxamide and 4-amino-7-fluoro-N-methyl-N-((4S)-7-(trifluoromethyl)-3,4-dihydro-2H-chromen-4-yl)-1,3-dihydrofuro[3,4-c]quinoline-8-carboxamide] |
| 150 | 9590 | Cc1nn(C)c2c1c(N)nc1ccc(C(=O)N(C)[C@@H]3COCc4nc(C(F)(F)F)ccc43)cc12 [Example 309, 4-amino-N,1,3-trimethyl-N-((5S)-2-(trifluoromethyl)-5,8-dihydro-6H-pyrano[3,4-b]pyr-idin-5-yl)-1H-pyrazolo[4,3-c]-quinoline-8-carboxamide] |
| 132 | 16100 | CN(C(=O)c1cc2c(cc1F)nc(N)c1c2cnn1C)[C@@H]1COc2cc(OC(F)F)ccc21 (single isomer, unassigned) [Example 577] |
| 129 | 11400 | CN(C(=O)c1ccc2nc(N)c3cnn(C)c3c2c1)[C@@H]1COc2cc(CO)ccc21 [Example 686, (S)-4-amino-N-(6-(hydroxymethyl)-2,3-dihydrobenzofuran-3-yl)-N,1-dimethyl-1H-pyrazolo[4,3-c]quinoline-8-carboxamide] |
| 108 | 5510 | CN(C(=O)c1ccc2nc(N)c3c(c2c1)COC3)[C@@H]1COc2cc(C3CC3)ccc21 (single isomer, unassigned) [Example 610] |
| 82 | 10500 | CN(C(=O)c1cc2c(cc1F)nc(N)c1c2cnn1C)[C@@H]1COc2cc(-c3cnn(C(F)(F)F)c3)ccc21 [Example 260, 4-amino-7-fluoro-N,3-dimethyl-N-((3S)-6-(1-(trifluoromethyl)-1H-pyrazol-4-yl)-2,3-dihydro-1-benzofuran-3-yl)-3H-pyrazolo-[3,4-c]quinoline-8-carboxamide] |
| 43 | 2060 | CN(C(=O)c1cc2c3c(c(N)nc2cn1)COC3)[C@@H]1COCc2nc(C(F)(F)F)ccc21 [Example 491, 4-amino-N-methyl-N-((5S)-2-(trifluoromethyl)-5,8-dihydro-6H-pyrano[3,4-b]pyridin-5-yl)-1,3-dihydrofuro[3,4-c][1,7]naphthyridine-8-carboxamide] |
| 25 | 1040 | CCN(C(=O)c1ccc2nc(N)c3c(c2c1)CO[C@@H]3C)[C@@H]1COCc2cc(C3CC3)ccc21 [Example 621, (3R)-4-amino-N-((4S)-7-cyclopropyl-3,4-dihydro-1H-2-benzopyran-4-yl)-N-ethyl-3-methyl-1,3-dihydrofuro[3,4-c]quinoline-8-carboxamide] |
| 22 | 1880 | CC(C)S(=O)(=O)c1ccc2c(c1)OCC2N(C)C(=O)c1cc2c3c(c(N)nc2cc1F)COC3 (racemic) [Example 464, 4-amino-7-fluoro-N-methyl-N-((3R)-6-(2-propanylsulfonyl)-2,3-dihydro-1-benzofuran-3-yl)-1,3-dihydrofuro[3,4-c]quinoline-8-carboxamide and 4-amino-7-fluoro-N-methyl-N-((3S)-6-(2-propanylsulfonyl)-2,3-dihydro-1-benzofuran-3-yl)-1,3-dihydrofuro[3,4-c]quinoline-8-carboxamide] |
| 16 | 1000 | CN(C(=O)c1ccc2nc(N)c3cnn(C)c3c2c1)[C@@H]1COCc2cc(-c3ccc(C(F)(F)F)cc3)ccc21 (single isomer, unassigned) [Example 669] |
| 15 | 795 | CN(C(=O)c1cc2c(cc1F)nc(N)c1cnn(C)c12)[C@@H]1COCc2c1ccc(F)c2F (single isomer, unassigned) [Example 597] |
| 11 | 457 | CN(C(=O)c1ccc2nc(N)c3c(c2c1)COC3)[C@@H]1COc2cc(S(F)(F)(F)(F)F)ccc21 (single isomer, unassigned) [Example 327] |
| 10 | 922 | CN(C(=O)c1ccc2nc(N)c3cnn(C)c3c2c1)[C@@H]1COCc2cc(-c3cnn(C(F)(F)F)c3)ccc21 (single isomer, unassigned) [Example 663] |
| 8 | 613 | CN(C(=O)c1ccc2nc(N)c3cnn(C)c3c2c1)[C@@H]1COc2cc(Br)ccc21 [Example 234, 4-amino-N-((3S)-6-bromo-2,3-dihydro-1-benzofuran-3-yl)-N,1-dimethyl-1H-pyrazolo[4,3-c]quinoline-8-carboxamide] |
| 3 | 75 | CN(C(=O)c1cc2c(cc1F)nc(N)c1cnn(C)c12)[C@@H]1COCc2cc(OC(F)(F)F)ccc21 (single isomer, unassigned) [Example 430] |
